From US20250114377A1, “TWO-PRONGED TREATMENT FOR NIEMANN PICK TYPE C DISEASE” (UNIVERSITY OF NOTRE DAME DU LAC, priority 2022, published 2025)
Entries after “also recorded” stand apart in the source; their conditions may differ.

What was measured:
lysosomal tubulation = assay: Rescue of lysosomal tubulation with purified oxysterols in LDL-depleted media (FIG. 4); format: cell-based
Experimental: FIG. 4. Rescue of Lysosomal Tubulation with Purified Oxysterols. Measurements of lysosomal tubulation comparing control complete media (Control) to media depleted of LDL (LDL−) and depleted media supplemented with 27-hydroxycholesterol (27-HC), 24-hydroxycholesterol (24-HC) or 25-hydroxycholesterol (25-HC).
Fixed and live-cell imaging was performed on COS-7 cells grown in Dulbecco's Modified Eagle's Medium (DMEM) supplemented with 10% fetal bovine serum, 1% L-glutamine, and penicillin/streptomycin (Sigma-Aldrich). Transfections were performed using either Lipofectamine (Life Technologies), X-treme Gene DNA Transfection reagent (Roche, Indianapolis, IN) or Nanofect (Allstem, Richmond, CA). J774A.1 mouse macrophages were provided and cultured in the same media. Cells were tested for contamination using PCR-based test kits (Sartorius, Inc.; Cat #SMB95-1001).
Microscopy experiments were performed on a Zeiss Axiovert 200M (Thornwood, NY) run by Metamorph software (Sunnyvale, CA). Fixed and live cell imaging data was collected using either a Photometrics Coolsnap HQ or Cascade 1k CCD camera (Tucson, AZ). Timelapse imaging of cells expressing NPC1-EGFP and mCherry-StARD9 utilized a Dual-view camera (Photometrics) adapter to allow simultaneous acquisition of green and red channels at each timepoint. Kymographs were generated in Metamorph using a 1p m slice from each frame.
(§1) To test this idea, we treated either NPC1 mutant (null or I1061T) or StARD9 mutant (null or truncation mutant) cells with 27-HC in a cocktail that delivers it into the cytoplasm independent of receptor-mediated endocytosis. […] Next, we treated NPC1(−/−) mice with 27-HC by i.p. delivery.

[1] = in vivo
Experimental: Studies have tested treatment 1× per week and 3× per week. However, from pharmacokinetic studies, it is known that 27-HC levels are only retained for 1-2 days. We will increase to daily treatment by oral gavage and measure serum levels of 27-HC to confirm maintenance of therapeutic levels. […] We will increase to higher doses by adding higher levels of DMSO to allow treatment with 20 mg/kg and 40 mg/kg.
We anticipate an increased benefit from treatment on a daily basis because the pharmacokinetics inform us about how long 27-HC remains in the blood (-100 ng/ml for 12 hours). For reference, children treated with Miglustat are dosed 3× per day. Higher doses of 27-HC and alternative cocktails are expected to reveal which parameters are more important for success. […] When crossed with NPC1(−/−) mice, they observe a significant decrease in NPC disease symptoms and an extension of lifespan (personal communication). This provides independent validation of the benefits associated with treatment with 27-HC. Finally, we expect improved outcomes for mice treated from conception over waiting until weaning (P21). This is because there is such a long window of brain development and maturation from conception to P21, that any developmental aspect of NPC disease would be well underway before we begin treatment at weaning.

NPC mutant mice = assay: Therapeutic administration of 27-HC in two transgenic strains of mice with NPC1 mutations (summary); format: in vivo
From the text: Mutations in the NPC1 gene affect two independent lysosomal functions. The first is the generation of lysosomal tubules as a mechanism to deliver intracellular cholesterol to other membrane-bound compartments. Because this function is impaired in NPC disease, we investigated the protein components necessary for tubule projection. We identified 27-HC as a signaling molecule that stimulates lysosomal tubulation and is not provided properly to lysosomal membrane to elicit tubulation in NPC disease. To correct this defect, we provide pure 27-HC in a cocktail that bypasses endocytosis. […] We have also tested this therapy in two different transgenic strains of mice with NPC1 mutations. […] Because we know the molecular target for 27-HC (StARD9), we tested 27-HC treatment in mice where we removed the StARD9 gene. […] This confirms the molecular target for 27-HC treatment and is consistent with our proposed model for the defects in NPC disease. Independent of the role for NPC1 in lysosomal tubulation, NPC1 is the “receptor” for the pro-apoptotic protein STING. STING is a signaling molecule that is activated by cell insults, including defective cholesterol transport. Once STING is activated, it triggers programmed cell death pathways. Counteracting STING activation, STING is silenced by binding to lysosomes, which leads to STING degradation and inactivation of this pathway. This silencing is required to prevent STING activation to proceed long-term. We recently discovered that the “receptor” on lysosomes that drives STING silencing is also NPC1. In cells mutant for NPC1, STING silencing is impaired, thereby leading to programmed cell death. As a result, NPC1 mutations cause cell death in two different ways. They cause loss of lysosomal tubulation, and they cause perpetual activation of STING.
We further propose that NPC1 is required for two functions in cells. The first is cholesterol transport from the lysosome to ER. If this activity is impaired, cells are “starved” of cholesterol in the ER. This has consequences for cholesterol metabolism and activates STING. Second, NPC1 in the lysosome is the receptor for STING that is required for STING silencing. In the absence of NPC1, STING remains active after initial activation (Priming) but also amplifies the responses including apoptosis. The dual roles of NPC1 are consistent with results across the NPC field. First, this explains why our StARD9 (−/−) mice are less severe than NPC1 (−/−) mice. NPC1(−/−) mice cause STING activation and impair STING silencing. […] Second, NPC1 (−/−) mice are more severe than NPC1 (I1061 T/I1061 T) mice because the NPC1 […] mice must reduce STING activation and retain some STING silencing compared to nulls.

[2] = test system: NPC1 mutant (null or I1061T) cells; assay: Rescue of lysosomal tubulation by 27-HC in NPC1 mutant cells (FIG. 5); format: cell-based; settings: 27-HC in a cocktail that bypasses receptor-mediated endocytosis
From the text: (§2) FIG. 5. Impact of NPC1 and StARD9 Mutations on Rescue of Lysosomal Tubulation by 27-Hydroxycholesterol (27-HC). The ability of 27-HC to rescue lysosomal tubulation after depletion of NPC1 (shRNA-NPC1) or StARD9 (shRNA-STARD9) was compared to cells expressing the NPC1 (I1061T)-eGFP mutant (I1061T) or a eGFP-StARD9 construct expressing amino acids 1-4483 (STARD9-ΔSTART). ***—p<0.005; ns (not significant).
as §1

[3] = test system: StARD9 mutant (null or truncation mutant) cells; assay: Rescue of lysosomal tubulation by 27-HC in StARD9 mutant cells (FIG. 5); format: cell-based; settings: 27-HC in a cocktail that bypasses receptor-mediated endocytosis
From the text: as §2, §1

[4] = two transgenic strains with NPC1 mutations

## C[C@@H](CO)CCC[C@@H](C)[C@H]1CC[C@H]2[C@@H]3CC=C4C[C@@H](O)CC[C@]4(C)[C@H]3CC[C@]12C [27-HC, 27-hydroxycholesterol]
Lysosomal tubulation
  Potency as signaling molecule for StARD9 among cholesterol and individual oxysterols: most potent candidate
[1]
  How long 27-HC remains in the blood: 12 h
  Time 27-HC levels are retained: 1 to 2 days
[1]; 12 hours
  27-HC level in the blood: -100 ng/mL
NPC mutant mice; mouse, in vivo
  Overall improvement for NPC1 mutant mice: statistically-significant improvement
NPC mutant mice; [4]
  Lifespan of mutant mice: extends the lifespan of mutant mice significantly
  Lysosomal tubulation in NPC mutant mice: rescues lysosomal tubulation
  Onset, severity and progression of NPC disease: delays the onset, severity and progression of NPC disease
[2]
  Rescue of lysosomal tubulation in NPC1 mutant cells: rescued lysosomal tubulation in NPC1 mutant; also recorded: corrects the lysosomal tubulation defects
[3]
  Rescue of lysosomal tubulation in StARD9 mutant cells: not StARD9 mutant cells
